From patent US9421209B2, “Kinase modulators” (Rhizen Pharmaceuticals SA, priority 2009, dated 2016) come the findings set out here.

Read-outs that look alike come from different tables or passages of the source.

One series concerns the target P110 δ/Pi3K δ (Homo sapiens, UniProt O00329). As to the kind of experiment: Fluorescent (HTRF) determination of PI3K enzyme activity, δ isoform. The class given is biochemical. More on the design: inhibition: dose or concentration left out as unconfirmed. In a few lines: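 HTRF kit detecting PIP3 formed from PIP2 by human PI3Kδ, at room temperature. Reaction started with 400 μM ATP (addition concentration) for 30 min, then stopped, and detection mix incubated 6–18 h in the dark. Percent inhibition taken against blank and enzyme controls, and IC50 fitted.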
For orientation: Time-resolved FRET reads energy transfer from a long-lived donor to a nearby acceptor.

Another series deals with P110α (Homo sapiens, UniProt P42336). Briefly: Fluorescent (HTRF) determination of PI3K enzyme activity, α isoform. The class given is biochemical. The text has this:
(§1) Assay 1: Fluorescent determination of PI3Kinase Kinase enzyme activity
(§2) Phosphoinositide 3 kinases (PI3K) belong to a class of lipid kinases that play a critical role in the regulation of several key cellular processes. The PI3K are capable of phosphorylating the 3-hydroxy position of phosphoinositols thereby generating second messengers involved in downstream signalling events. The homogenous time resolved fluorescence (HTRF) assay allows detection of 3,4,5-triphosphate (PIP3) formed as a result of phosphorylation of phosphotidylinositol 4,5-biphosphate (PIP2) by PI3K isoforms such as α, β, γ or δ.
(§3) PI3K isoform activity for α, β, γ or δ was determined using a PI3K human HTRF™ Assay Kit (Millipore, Billerica, Mass.) with modifications. All incubations were carried out at room temperature. Briefly, 0.5 μl of 40× inhibitor (in 100% DMSO) or 100% DMSO were added to each well of a 384-well black plate (Greiner Bio-One, Monroe, N.C.) containing 14.5 μl 1× reaction buffer/PIP2 (10 mM MgCl2, 5 mM DTT, 1.38 μM PIP2) mix with or without enzyme and incubated for 10 min. After the initial incubation, 5 μl/well of 400 μM ATP was added and incubated for an additional 30 minutes. Reaction was terminated by adding 5 μl/well stop solution (Millipore, Billerica, Mass.). Five microliters of detection mix (Millipore, Billerica, Mass.) were then added to each well and was incubated for 6-18 h in the dark. HRTF ratio was measured on a microplate reader (BMG Labtech., Germany) at an excitation wavelength of 337 nm and emission wavelengths of 665 and 620 nm with an integration time of […]. Data were analyzed using Graphpad Prism (Graphpad software; San Diego Calif.) for IC50 determination. Percent inhibition was calculated based on the values for the blank and enzyme controls. The results are provided below in Table 2 & 3.

A further series deals with P110β (Homo sapiens, UniProt P42338). As to the kind of experiment: Fluorescent (HTRF) determination of PI3K enzyme activity, β isoform. The class given is biochemical. In a few lines: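 Recombinant human PI3K isoforms incubated 10 min at room temperature with inhibitor and 1.38 μM PIP2 (10 mM MgCl2, 5 mM DTT), then 30 min after adding 400 μM ATP stock. PIP3 formation detected by HTRF (665/620 nm); % inhibition versus blank and enzyme controls gives IC50.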

The next series concerns the target P110γ (Homo sapiens, UniProt P48736). As to the kind of experiment: Fluorescent (HTRF) determination of PI3K enzyme activity, γ isoform. It counts as biochemical.
Description: as §1, §2, §3

[1] abbreviates: read-out: P110 δ/Pi3K δ IC 50 nM.

As usually defined, the inhibition is the drop in the measured response relative to a control, in per cent. The melting point is the temperature of the solid-liquid transition.

Chain of P110β (P42338 whole entry, canonical isoform): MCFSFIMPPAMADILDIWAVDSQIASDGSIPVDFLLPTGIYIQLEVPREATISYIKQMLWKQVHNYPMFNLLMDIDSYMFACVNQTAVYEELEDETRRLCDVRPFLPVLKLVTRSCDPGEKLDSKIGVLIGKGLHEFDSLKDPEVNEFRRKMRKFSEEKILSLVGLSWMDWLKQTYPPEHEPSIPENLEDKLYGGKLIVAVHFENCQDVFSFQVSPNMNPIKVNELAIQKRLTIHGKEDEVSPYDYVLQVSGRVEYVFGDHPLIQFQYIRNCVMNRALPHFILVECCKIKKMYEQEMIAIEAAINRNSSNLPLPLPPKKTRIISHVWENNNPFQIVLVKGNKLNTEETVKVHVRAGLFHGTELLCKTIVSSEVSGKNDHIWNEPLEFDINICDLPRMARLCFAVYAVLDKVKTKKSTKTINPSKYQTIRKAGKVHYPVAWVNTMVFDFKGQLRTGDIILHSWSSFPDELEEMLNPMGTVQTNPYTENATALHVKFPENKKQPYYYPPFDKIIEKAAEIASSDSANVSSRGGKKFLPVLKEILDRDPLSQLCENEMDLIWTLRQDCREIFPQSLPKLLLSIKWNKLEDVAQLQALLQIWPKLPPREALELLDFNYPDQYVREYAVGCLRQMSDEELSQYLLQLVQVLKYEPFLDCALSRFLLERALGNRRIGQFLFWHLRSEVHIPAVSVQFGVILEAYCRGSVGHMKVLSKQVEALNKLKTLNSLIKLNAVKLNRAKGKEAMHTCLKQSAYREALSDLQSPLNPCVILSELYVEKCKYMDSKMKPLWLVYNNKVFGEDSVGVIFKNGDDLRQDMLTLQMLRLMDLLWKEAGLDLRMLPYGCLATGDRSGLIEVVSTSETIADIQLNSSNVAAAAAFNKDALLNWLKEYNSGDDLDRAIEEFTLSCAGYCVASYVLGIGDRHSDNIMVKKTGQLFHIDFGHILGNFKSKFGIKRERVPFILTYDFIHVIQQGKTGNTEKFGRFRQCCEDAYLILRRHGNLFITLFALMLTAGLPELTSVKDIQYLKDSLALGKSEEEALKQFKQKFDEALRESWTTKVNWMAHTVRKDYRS
Chain of P110β (P27986 whole entry partner, canonical isoform): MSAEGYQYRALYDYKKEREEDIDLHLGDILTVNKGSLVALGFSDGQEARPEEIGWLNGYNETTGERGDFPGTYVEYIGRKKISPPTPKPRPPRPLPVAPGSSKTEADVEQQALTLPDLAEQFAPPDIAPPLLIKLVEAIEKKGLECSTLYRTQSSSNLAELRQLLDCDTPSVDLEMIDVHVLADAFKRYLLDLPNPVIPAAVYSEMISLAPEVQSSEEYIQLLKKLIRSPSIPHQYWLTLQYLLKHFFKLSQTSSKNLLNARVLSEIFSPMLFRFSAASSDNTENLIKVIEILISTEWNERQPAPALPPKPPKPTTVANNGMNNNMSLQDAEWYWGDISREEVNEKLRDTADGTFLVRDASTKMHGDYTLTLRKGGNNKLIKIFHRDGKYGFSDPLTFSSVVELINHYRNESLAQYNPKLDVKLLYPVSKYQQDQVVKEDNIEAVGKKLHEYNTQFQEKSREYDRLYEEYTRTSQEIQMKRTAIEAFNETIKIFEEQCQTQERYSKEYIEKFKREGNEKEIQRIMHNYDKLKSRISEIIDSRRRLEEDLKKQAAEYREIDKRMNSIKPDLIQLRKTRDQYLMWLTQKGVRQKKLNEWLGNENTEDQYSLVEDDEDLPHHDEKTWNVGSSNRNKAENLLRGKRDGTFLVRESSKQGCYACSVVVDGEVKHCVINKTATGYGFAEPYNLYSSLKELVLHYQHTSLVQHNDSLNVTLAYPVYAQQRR
Chain of P110γ (P48736 whole entry, canonical isoform): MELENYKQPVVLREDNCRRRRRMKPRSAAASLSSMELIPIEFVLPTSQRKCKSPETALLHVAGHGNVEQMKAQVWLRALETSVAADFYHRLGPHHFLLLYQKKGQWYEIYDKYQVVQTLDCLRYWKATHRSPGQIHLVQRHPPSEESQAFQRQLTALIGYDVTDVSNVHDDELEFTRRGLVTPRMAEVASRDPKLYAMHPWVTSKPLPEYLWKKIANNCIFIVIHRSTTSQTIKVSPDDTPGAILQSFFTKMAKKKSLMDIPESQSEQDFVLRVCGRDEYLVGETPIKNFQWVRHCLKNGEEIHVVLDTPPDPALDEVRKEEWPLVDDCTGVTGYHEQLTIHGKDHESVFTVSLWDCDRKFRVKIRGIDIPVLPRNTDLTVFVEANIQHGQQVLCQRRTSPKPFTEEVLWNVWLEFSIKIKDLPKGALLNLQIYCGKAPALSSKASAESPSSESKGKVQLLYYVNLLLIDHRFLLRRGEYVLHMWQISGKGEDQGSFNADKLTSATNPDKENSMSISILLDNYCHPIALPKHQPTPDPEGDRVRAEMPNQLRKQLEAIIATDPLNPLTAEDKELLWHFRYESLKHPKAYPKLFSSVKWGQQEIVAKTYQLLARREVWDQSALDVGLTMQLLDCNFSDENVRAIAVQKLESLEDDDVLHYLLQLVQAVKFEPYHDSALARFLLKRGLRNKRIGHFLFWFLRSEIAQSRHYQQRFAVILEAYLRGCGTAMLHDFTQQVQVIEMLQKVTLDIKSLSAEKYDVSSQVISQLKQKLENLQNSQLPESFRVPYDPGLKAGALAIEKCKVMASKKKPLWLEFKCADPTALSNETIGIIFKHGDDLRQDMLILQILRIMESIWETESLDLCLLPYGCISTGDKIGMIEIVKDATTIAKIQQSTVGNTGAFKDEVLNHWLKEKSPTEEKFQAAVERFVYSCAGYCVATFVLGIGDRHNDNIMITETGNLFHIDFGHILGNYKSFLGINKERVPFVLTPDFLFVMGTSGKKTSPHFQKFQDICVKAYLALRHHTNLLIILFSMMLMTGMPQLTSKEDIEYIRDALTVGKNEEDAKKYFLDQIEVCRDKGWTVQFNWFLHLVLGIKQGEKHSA
Chain of P110α (P42336 whole entry, canonical isoform): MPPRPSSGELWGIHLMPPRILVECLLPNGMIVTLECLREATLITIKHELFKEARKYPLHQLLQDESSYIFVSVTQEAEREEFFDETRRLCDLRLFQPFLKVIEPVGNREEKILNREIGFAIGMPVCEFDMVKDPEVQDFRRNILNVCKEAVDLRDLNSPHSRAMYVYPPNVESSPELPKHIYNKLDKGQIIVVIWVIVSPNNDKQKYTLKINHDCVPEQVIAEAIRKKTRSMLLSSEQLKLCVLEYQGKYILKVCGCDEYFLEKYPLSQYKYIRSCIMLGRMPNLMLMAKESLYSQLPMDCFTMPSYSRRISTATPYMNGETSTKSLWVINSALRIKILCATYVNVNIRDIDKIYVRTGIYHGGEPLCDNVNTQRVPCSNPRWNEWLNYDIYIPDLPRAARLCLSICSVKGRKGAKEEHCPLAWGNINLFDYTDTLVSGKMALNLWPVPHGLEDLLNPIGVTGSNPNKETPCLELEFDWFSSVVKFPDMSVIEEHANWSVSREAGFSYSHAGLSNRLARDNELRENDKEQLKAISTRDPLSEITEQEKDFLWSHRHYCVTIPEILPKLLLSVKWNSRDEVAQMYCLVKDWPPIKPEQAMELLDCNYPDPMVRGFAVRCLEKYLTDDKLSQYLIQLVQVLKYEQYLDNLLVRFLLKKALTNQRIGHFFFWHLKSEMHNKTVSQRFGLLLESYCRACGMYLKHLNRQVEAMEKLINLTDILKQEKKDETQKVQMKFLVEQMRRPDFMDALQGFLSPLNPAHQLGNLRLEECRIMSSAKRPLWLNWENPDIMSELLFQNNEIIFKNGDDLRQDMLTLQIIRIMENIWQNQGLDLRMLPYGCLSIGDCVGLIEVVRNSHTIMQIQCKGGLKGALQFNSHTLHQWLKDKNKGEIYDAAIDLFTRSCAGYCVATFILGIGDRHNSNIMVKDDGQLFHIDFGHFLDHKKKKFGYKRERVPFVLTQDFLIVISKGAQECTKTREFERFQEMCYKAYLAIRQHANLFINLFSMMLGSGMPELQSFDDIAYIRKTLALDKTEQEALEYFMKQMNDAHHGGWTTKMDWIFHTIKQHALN
Chain of P110α (P27986 whole entry partner, canonical isoform): as the sequence (P27986 whole entry partner, canonical isoform) above
Chain of P110 δ/Pi3K δ (O00329 whole entry, canonical isoform): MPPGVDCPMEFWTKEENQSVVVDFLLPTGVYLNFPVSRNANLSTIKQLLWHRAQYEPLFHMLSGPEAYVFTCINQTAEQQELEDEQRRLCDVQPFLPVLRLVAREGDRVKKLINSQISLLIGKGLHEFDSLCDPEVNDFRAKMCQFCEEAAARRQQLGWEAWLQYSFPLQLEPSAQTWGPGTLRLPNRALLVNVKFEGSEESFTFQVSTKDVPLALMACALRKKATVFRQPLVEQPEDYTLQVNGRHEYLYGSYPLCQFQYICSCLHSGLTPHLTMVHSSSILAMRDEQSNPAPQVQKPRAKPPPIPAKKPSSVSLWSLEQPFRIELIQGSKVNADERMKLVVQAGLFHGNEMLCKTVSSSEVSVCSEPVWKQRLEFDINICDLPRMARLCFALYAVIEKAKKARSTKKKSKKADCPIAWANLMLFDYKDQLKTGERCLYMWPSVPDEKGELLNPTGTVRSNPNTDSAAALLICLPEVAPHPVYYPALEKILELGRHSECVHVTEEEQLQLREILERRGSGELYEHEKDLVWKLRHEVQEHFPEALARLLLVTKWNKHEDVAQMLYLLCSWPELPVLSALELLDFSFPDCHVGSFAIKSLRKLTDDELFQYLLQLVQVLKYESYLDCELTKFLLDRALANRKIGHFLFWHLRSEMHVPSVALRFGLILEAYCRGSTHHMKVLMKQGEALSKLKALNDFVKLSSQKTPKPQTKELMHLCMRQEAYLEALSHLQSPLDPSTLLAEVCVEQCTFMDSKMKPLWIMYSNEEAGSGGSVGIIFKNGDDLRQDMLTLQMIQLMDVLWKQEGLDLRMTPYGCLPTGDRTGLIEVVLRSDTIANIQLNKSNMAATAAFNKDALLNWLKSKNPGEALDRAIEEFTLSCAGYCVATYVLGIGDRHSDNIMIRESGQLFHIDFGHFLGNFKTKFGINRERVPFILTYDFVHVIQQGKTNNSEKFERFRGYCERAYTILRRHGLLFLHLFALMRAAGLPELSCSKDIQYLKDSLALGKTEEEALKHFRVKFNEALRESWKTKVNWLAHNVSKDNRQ
Chain of P110 δ/Pi3K δ (P27986 whole entry partner, canonical isoform): as the sequence (P27986 whole entry partner, canonical isoform) above

For the compound `C[C@H](Nc1ncnc2[nH]cnc12)c1oc2ccccc2c(=O)c1-c1cccc(F)c1` [Example 47, (S)-2-(1-(9H-purin-6-ylamino)ethyl)-3-(3-fluorophenyl)-4H-chromen-4-one], the melting point lay in the range of 135 to 138 °C. For the same compound, the inhibition at 1 µM at P110 δ/Pi3K δ is 50 to 100%. Also, on P110 δ/Pi3K δ (setting [1]), the IC50 was under 250 nM. Further, the inhibition at 1 µM against P110α was under 25%. Besides, on P110β, the inhibition at 1 µM lay in the range of 25 to 50%. On P110γ, the inhibition at 1 µM is 25 to 50%.

In turn, `Nc1ncnc2c1c(-c1cccc(O)c1)nn2Cc1oc2ccccc2c(=O)c1-c1ccccc1` [Example 53, 2-((4-Amino-3-(3-hydroxyphenyl)-1H-pyrazolo[3,4-d]pyrimidin-1-yl)methyl)-3-phenyl-4H-chromen-4-one] yielded a melting point of 154 to 158 °C. This compound also showed an inhibition at 1 µM at P110 δ/Pi3K δ of 50 to 100%. Also, the IC50 on P110 δ/Pi3K δ (setting [1]) is under 250 nM. At P110α, the inhibition at 1 µM is under 25%. The inhibition at 1 µM against P110β is 50 to 100%. Further, at P110γ, the inhibition at 1 µM was under 25%.

For the compound `Nc1ncnc2c1c(-c1cccc(O)c1)nn2Cc1oc2ccccc2c(=O)c1-c1cccc(F)c1` [Example 55, 2-((4-amino-3-(3-hydroxyphenyl)-1H-pyrazolo[3,4-d]pyrimidin-1-yl)methyl)-3-(3-fluorophenyl)-4H-chromen-4-one], the melting point fell in the range of 280 to 283 °C. For the same compound, the inhibition at 1 µM against P110 δ/Pi3K δ was in the range of 50 to 100%. Besides, the IC50 on P110 δ/Pi3K δ (setting [1]) is under 250 nM. This compound came in with an inhibition at 1 µM against P110α of under 25%. Besides, the inhibition at 1 µM on P110β was under 25%. The same compound came in with an inhibition at 1 µM on P110γ of 50 to 100%.

On to `Nc1ncnc2c1c(-c1cc(O)cc(F)c1)nn2Cc1oc2ccccc2c(=O)c1-c1cccc(F)c1` [Example 68, 2-((4-amino-3-(3-fluoro-5-hydroxyphenyl)-1H-pyrazolo[3,4-d]pyrimidin-1-yl)methyl)-3-(3-fluorophenyl)-4H-chromen-4-one], for which the melting point lay in the range of 235 to 237 °C. The compound further had an inhibition at 1 µM at P110 δ/Pi3K δ of 50 to 100%. In addition, the IC50 at P110 δ/Pi3K δ (setting [1]) is under 250 nM. Also, the inhibition at 1 µM on P110α is under 25%. At P110β, this compound registered an inhibition at 1 µM of 25 to 50%. Moreover, the inhibition at 1 µM against P110γ is under 25%.

Regarding `Cc1n[nH]c2cc(-c3nn(C(C)c4oc5ccccc5c(=O)c4-c4cccc(F)c4)c4ncnc(N)c34)ccc12` (stereo not shown) [Example 79, 2-(1-(4-amino-3-(3-methyl-1H-indazol-6-yl)-1H-pyrazolo[3,4-d]pyrimidin-1-yl)ethyl)-3-(3-fluorophenyl)-4H-chromen-4-one], the melting point is 214 to 217 °C. Also, at P110 δ/Pi3K δ, the inhibition is 50 to 100%. In addition, on P110 δ/Pi3K δ (read-out: P110 δ/ Pi3K δ IC 50 nM), the IC50 was under 250 nM. Besides, the inhibition at 1 µM against P110α is under 25%. Also, at P110β, the inhibition at 1 µM is 25 to 50%. Also, on P110γ, the inhibition at 1 µM fell in the range of 25 to 50%.

As to `CC(c1oc2ccccc2c(=O)c1-c1cccc(F)c1)n1nc(-c2ccc3c(c2)CCO3)c2c(N)ncnc21` (stereo not shown) [Example 109, 2-(1-(4-amino-3-(2,3-dihydrobenzofuran-5-yl)-1H-pyrazolo[3,4-d]pyrimidin-1-yl)ethyl)-3-(3-fluorophenyl)-4H-chromen-4-one], the melting point fell in the range of 238 to 241 °C. The compound further gave an inhibition against P110 δ/Pi3K δ of 50 to 100%. For the same compound, on P110α, the inhibition at 1 µM was under 25%. In addition, the inhibition at 1 µM at P110β is under 25%. On P110γ, the inhibition at 1 µM was in the range of 25 to 50%.

`Cc1c[nH]c2cc(-c3nn(C(C)c4oc5ccccc5c(=O)c4-c4cccc(F)c4)c4ncnc(N)c34)ccc12` (stereo not shown) [Example 111, 2-(1-(4-amino-3-(3-methyl-1H-indol-6-yl)-1H-pyrazolo[3,4-d]pyrimidin-1-yl)ethyl)-3-(3-fluorophenyl)-4H-chromen-4-one] registered a melting point of 269 to 272 °C. At P110 δ/Pi3K δ, this compound returned an inhibition of 50 to 100%. On P110α, the inhibition at 1 µM is under 25%. The inhibition at 1 µM on P110β was under 25%. The same compound showed an inhibition at 1 µM against P110γ of 50 to 100%.
